Source: patent US7507721B2, “Macrolides with antiinflammatory activity” (Zambon Group S.p.A., priority 2004, dated 2009)

What follows are compounds tested on PMA-induced oedema in mouse ear (assay: Acute contact dermatitis: inhibition of PMA/TPA-induced oedema in mouse ear). Details: 6 h, CD1 mice, 500 μg/ear topical in TPDS, 30 minutes before TPA 0.01% in acetone, ear weight difference after six hours vs TPA only.
Assay type: in vivo
Experimental: The antiinflammatory activity has been evaluated as inhibition of PMA-induced oedema in mouse ear (Phorbol Myristate Acetate).
A) Acute contact dermatitis.
Groups of 5 CD1 mice (18-24 g) were used.
All the macrolide derivatives were dissolved in the Trans-phase Delivery System (TPDS) vehicle containing 10% benzyl alcohol, 40% acetone and 50% isopropanol.
15 microliters of the compounds (500 μg/ear), dissolved in TPDS, were applied topically onto the inner surface of an ear; after 30 minutes 12 microliters of a solution of acetate of tetradecanoyl-phorbol (TPA) with the concentration of 0.01% dissolved in acetone were applied onto the same area.
After six hours the animals were sacrified by inhalation of CO2.
The oedema level was calculated by detracting the weight of a defined portion of auricular ala of the not treated ear to the one of the treated controlateral ear. To determine the oedema remission level the weight difference of the groups treated with TPA+macrolides was compared with the ones of those treated with TPA only. The activity of the macrolides was measured by using the modified method of Zunic et coll. (1998): MDL (Lysyl) GDP, a non-toxil muramyl dipeptide derivative inhibits, cytokine production by activated macrophages and protects mice from phorbol ester-and oxazolone-induced inflammation (J. Invest Dermatol., 111(1), 77-82).
The data relating to erythromycin concern the treatment in single dose with 500 μg/ear.
Work on `CC[C@H]1OC(=O)[C@H](C)[C@@H](O)[C@H](C)[C@@H](O[C@@H]2O[C@H](C)C[C@H](N(C)C(=O)c3ccco3)[C@H]2O)C(C)(O)C[C@@H](C)[C@H](O)[C@H](C)[C@@H](O)[C@]1(C)O` (stereo partly drawn) [Compound 4] yielded an inhibition in vivo at 500 µg/ear of 64.4%. For `CC[C@H]1OC(=O)[C@H](C)[C@@H](O)[C@H](C)[C@@H](O[C@@H]2O[C@H](C)C[C@H](N(C)C(=O)c3cccnc3)[C@H]2O)C(C)(O)C[C@@H](C)[C@H](O)[C@H](C)[C@@H](O)[C@]1(C)O` (stereo partly drawn) [Compound 7], the inhibition in vivo at 500 µg/ear was 46.1%. Compound `CC[C@H]1OC(=O)[C@H](C)[C@@H](O)[C@H](C)[C@@H](O[C@@H]2O[C@H](C)C[C@H](N(C)C(=O)c3cccs3)[C@H]2O)C(C)(O)C[C@@H](C)/C(=N\O)[C@H](C)[C@@H](O)[C@]1(C)O` (stereo partly drawn) [Compound 23] has an inhibition in vivo at 500 µg/ear of 86.8%. Compound `CC[C@H]1OC(=O)[C@H](C)[C@@H](O)[C@H](C)[C@@H](O[C@@H]2O[C@H](C)C[C@H](N(C)C(=O)C3CCCCC3)[C@H]2O)C(C)(O)C[C@@H](C)[C@H](O)[C@H](C)[C@@H](O)[C@]1(C)O` (stereo partly drawn) [Compound 10] has an inhibition in vivo at 500 µg/ear of 89.2%. Work on `CC[C@H]1OC(=O)[C@H](C)[C@@H](O)[C@H](C)[C@@H](O[C@@H]2O[C@H](C)C[C@H](N(C)C(=O)C(C)(C)C)[C@H]2O)C(C)(O)C[C@@H](C)/C(=N\OC(=O)C(C)(C)C)[C@H](C)[C@@H](O)[C@]1(C)O` (stereo partly drawn) [Compound 17] yielded an inhibition in vivo at 500 µg/ear of 51.2%. `CC[C@H]1OC(=O)[C@H](C)[C@@H](O)[C@H](C)[C@@H](O[C@@H]2O[C@H](C)C[C@H](N(C)C(=O)Cc3ccccc3)[C@H]2O)C(C)(O)C[C@@H](C)[C@H](O)[C@H](C)[C@@H](O)[C@]1(C)O` (stereo partly drawn) [Compound 2] was tested, and the inhibition in vivo at 500 µg/ear was 88.1%. `CC[C@H]1OC(=O)[C@H](C)[C@@H](O)[C@H](C)[C@@H](O[C@@H]2O[C@H](C)C[C@H](N(C)C(=O)C(C)(C)C)[C@H]2O)C(C)(O)C[C@@H](C)/C(=N\O)[C@H](C)[C@@H](O)[C@]1(C)O` (stereo partly drawn) [Compound 26] gave an inhibition in vivo at 500 µg/ear of 68.6%. For `CC[C@H]1OC(=O)[C@H](C)[C@@H](O)[C@H](C)[C@@H](O[C@@H]2O[C@H](C)C[C@H](N(C)C(=O)Cc3cccs3)[C@H]2O)C(C)(O)C[C@@H](C)[C@H](O)[C@H](C)[C@@H](O)[C@]1(C)O` (stereo partly drawn) [Compound 5], the inhibition in vivo at 500 µg/ear was 53.7%. For `CC[C@H]1OC(=O)[C@H](C)[C@@H](O[C@H]2C[C@@](C)(OC)[C@@H](O)[C@H](C)O2)[C@H](C)[C@@H](O[C@@H]2O[C@H](C)C[C@H](N(C)C)[C@H]2O)[C@](C)(O)C[C@@H](C)CN(C)[C@H](C)[C@@H](O)[C@]1(C)O` [Azithromycin, reference compound], the inhibition in vivo at 500 µg/ear was 40%. `CC[C@H]1OC(=O)[C@H](C)[C@@H](O[C@H]2C[C@@](C)(OC)[C@@H](O)[C@H](C)O2)[C@H](C)[C@@H](O[C@@H]2O[C@H](C)C[C@H](N(C)C)[C@H]2O)[C@](C)(O)C[C@@H](C)C(=O)[C@H](C)[C@@H](O)[C@]1(C)O` [Erythromycin, reference compound] gave an inhibition in vivo at 500 µg/ear of 42.5%. Compound `CC[C@H]1OC(=O)[C@H](C)[C@@H](O)[C@H](C)[C@@H](O[C@@H]2O[C@H](C)C[C@H](N(C)C(=O)c3cccnc3Cl)[C@H]2O)C(C)(O)C[C@@H](C)/C(=N\O)[C@H](C)[C@@H](O)[C@]1(C)O` (stereo partly drawn) [Compound 28] has an inhibition in vivo at 500 µg/ear of 81.7%. Work on `CC[C@H]1OC(=O)[C@H](C)[C@@H](O)[C@H](C)[C@@H](O[C@@H]2O[C@H](C)C[C@H](N(C)C(=O)c3ccc(OC)cc3)[C@H]2O)C(C)(O)C[C@@H](C)/C(=N\O)[C@H](C)[C@@H](O)[C@]1(C)O` (stereo partly drawn) [Compound 20] yielded an inhibition in vivo at 500 µg/ear of 83.2%. Compound `CC[C@H]1OC(=O)[C@H](C)[C@@H](O)[C@H](C)[C@@H](O[C@@H]2O[C@H](C)C[C@H](N(C)C(=O)c3ccccc3)[C@H]2O)C(C)(O)C[C@@H](C)[C@H](O)[C@H](C)[C@@H](O)[C@]1(C)O` (stereo partly drawn) [Compound 3] has an inhibition in vivo at 500 µg/ear of 89.9%. `CC[C@H]1OC(=O)[C@H](C)[C@@H](O)[C@H](C)[C@@H](O[C@@H]2O[C@H](C)C[C@H](N(C)C(=O)c3ccccc3)[C@H]2O)C(C)(OC)C[C@@H](C)C(=O)[C@H](C)[C@@H](O)[C@]1(C)O` (stereo partly drawn) [Compound 15] gave an inhibition in vivo at 500 µg/ear of 74.3%. In the case of `CC[C@H]1OC(=O)[C@H](C)[C@@H](O)[C@H](C)[C@@H](O[C@@H]2O[C@H](C)C[C@H](N(C)C(=O)Cc3cccs3)[C@H]2O)C(C)(O)C[C@@H](C)/C(=N\O)[C@H](C)[C@@H](O)[C@]1(C)O` (stereo partly drawn) [Compound 25], the inhibition in vivo at 500 µg/ear is reported as 79.3%. Compound `CCNC(=O)N(C)[C@H]1C[C@@H](C)O[C@@H](O[C@@H]2[C@@H](C)[C@H](O)[C@@H](C)C(=O)O[C@H](CC)[C@@](C)(O)[C@H](O)[C@@H](C)[C@@H](O)[C@H](C)CC2(C)O)[C@@H]1O` (stereo partly drawn) [Compound 13] has an inhibition in vivo at 500 µg/ear of 80.3%. Compound `CC[C@H]1OC(=O)[C@H](C)[C@@H](O)[C@H](C)[C@@H](O[C@@H]2O[C@H](C)C[C@H](N(C)C(=O)Cc3cccs3)[C@H]2O)C(C)(O)C[C@@H](C)/C(=N\OC(=O)Cc2cccs2)[C@H](C)[C@@H](O)[C@]1(C)O` (stereo partly drawn) [Compound 27] has an inhibition in vivo at 500 µg/ear of 61.4%. `CC[C@H]1OC(=O)[C@H](C)[C@@H](O)[C@H](C)[C@@H](O[C@@H]2O[C@H](C)C[C@H](N(C)C(=O)COC)[C@H]2O)C(C)(O)C[C@@H](C)/C(=N\O)[C@H](C)[C@@H](O)[C@]1(C)O` (stereo partly drawn) [Compound 19] gave an inhibition in vivo at 500 µg/ear of 86.1%. Compound `CC[C@H]1OC(=O)[C@H](C)[C@@H](O)[C@H](C)[C@@H](O[C@@H]2O[C@H](C)C[C@H](N(C)C(=O)c3ccc(F)cc3)[C@H]2O)C(C)(OC)C[C@@H](C)C(=O)[C@H](C)[C@@H](O)[C@]1(C)O` (stereo partly drawn) [Compound 16] has an inhibition in vivo at 500 µg/ear of 81.1%. `CC[C@H]1OC(=O)[C@H](C)[C@@H](O)[C@H](C)[C@@H](O[C@@H]2O[C@H](C)C[C@H](N(C)C(=O)c3cccnc3)[C@H]2O)C(C)(O)C[C@@H](C)/C(=N\O)[C@H](C)[C@@H](O)[C@]1(C)O` (stereo partly drawn) [Compound 22] was tested, and the inhibition in vivo at 500 µg/ear was 74.3%. Compound `CC[C@H]1OC(=O)[C@H](C)[C@@H](O)[C@H](C)[C@@H](O[C@@H]2O[C@H](C)C[C@H](N(C)S(=O)(=O)c3ccc(C)cc3)[C@H]2O)C(C)(O)C[C@@H](C)[C@H](O)[C@H](C)[C@@H](O)[C@]1(C)O` (stereo partly drawn) [Compound 12] has an inhibition in vivo at 500 µg/ear of 72.2%. With `CCCCCCCC(=O)N(C)[C@H]1C[C@@H](C)O[C@@H](O[C@@H]2[C@@H](C)[C@H](O)[C@@H](C)C(=O)O[C@H](CC)[C@@](C)(O)[C@H](O)[C@@H](C)[C@@H](O)[C@H](C)CC2(C)O)[C@@H]1O` (stereo partly drawn) [Compound 9] the inhibition in vivo at 500 µg/ear was 74.2%. Work on `CC[C@H]1OC(=O)[C@H](C)[C@@H](O)[C@H](C)[C@@H](O[C@@H]2O[C@H](C)C[C@H](N(C)S(C)(=O)=O)[C@H]2O)C(C)(O)C[C@@H](C)[C@H](O)[C@H](C)[C@@H](O)[C@]1(C)O` (stereo partly drawn) [Compound 11] yielded an inhibition in vivo at 500 µg/ear of 55.3%. `CC[C@H]1OC(=O)[C@H](C)[C@@H](O)[C@H](C)[C@@H](O[C@@H]2O[C@H](C)C[C@H](N(C)C(=O)c3ccc(OC)cc3)[C@H]2O)C(C)(O)C[C@@H](C)/C(=N\OC(=O)c2ccc(OC)cc2)[C@H](C)[C@@H](O)[C@]1(C)O` (stereo partly drawn) [Compound 21] showed an inhibition in vivo at 500 µg/ear of 53.3%. Work on `CC[C@H]1OC(=O)[C@H](C)[C@@H](O)[C@H](C)[C@@H](O[C@@H]2O[C@H](C)C[C@H](N(C)C(=O)c3ccc(C)cc3)[C@H]2O)C(C)(O)C[C@@H](C)[C@H](O)[C@H](C)[C@@H](O)[C@]1(C)O` (stereo partly drawn) [Compound 6] yielded an inhibition in vivo at 500 µg/ear of 77.8%. `CC[C@H]1OC(=O)[C@H](C)[C@@H](O)[C@H](C)[C@@H](O[C@@H]2O[C@H](C)C[C@H](N(C)C(=O)c3cccs3)[C@@H]2O)[C@](C)(O)C[C@H](C)/C(=N\OC(=O)c2cccs2)[C@@H](C)[C@H](O)[C@]1(C)O` [Compound 24] was tested, and the inhibition in vivo at 500 µg/ear was 41.3%. With `CC[C@H]1OC(=O)[C@H](C)[C@@H](O)[C@H](C)[C@@H](O[C@@H]2O[C@H](C)C[C@H](N(C)C(C)=O)[C@H]2O)C(C)(O)C[C@@H](C)/C(=N\OC(C)=O)[C@H](C)[C@@H](O)[C@]1(C)O` (stereo partly drawn) [Compound 18] the inhibition in vivo at 500 µg/ear was 49%. In the case of `CC[C@H]1OC(=O)[C@H](C)[C@@H](O)[C@H](C)[C@@H](O[C@@H]2O[C@H](C)C[C@H](N(C)C(=O)COCc3cc(OC)ccn3)[C@H]2O)C(C)(O)C[C@@H](C)C(O)[C@H](C)[C@@H](O)[C@]1(C)O` (stereo partly drawn) [Compound 1], the inhibition in vivo at 500 µg/ear is reported as 61.5%. Work on `CC[C@H]1OC(=O)[C@H](C)[C@@H](O)[C@H](C)[C@@H](O[C@@H]2O[C@H](C)C[C@H](N(C)C(=O)CSc3ccccc3)[C@H]2O)C(C)(O)C[C@@H](C)[C@H](O)[C@H](C)[C@@H](O)[C@]1(C)O` (stereo partly drawn) [Compound 8] yielded an inhibition in vivo at 500 µg/ear of 57.6%. `CC[C@H]1OC(=O)[C@H](C)[C@@H](O)[C@H](C)[C@@H](O[C@@H]2O[C@H](C)C[C@H](N(C)C(=O)Nc3ccccc3)[C@H]2O)C(C)(O)C[C@@H](C)[C@H](O)[C@H](C)[C@@H](O)[C@]1(C)O` (stereo partly drawn) [Compound 14] showed an inhibition in vivo at 500 µg/ear of 89.9%.
